Blank lines part the entries; values can stand above or below the molecule they belong to.
Experiments:
[1] = tested on: NPM1 and GAPDH acetylation in KB cells; test: NPM1 and GAPDH acetylation in KB cells (anti-acetyl lysine immunoprecipitation, western blotting); assay type: cell-based
Experimental: (§1) KB cells were maintained in Dullbecco's modified Eagle medium (DMEM) with 10% fetal bovine serum (FBS) at 37° C. with a 5% CO2 atmosphere in a humidified incubator. For IFNγ and GSNO treatment, KB cells were incubated in the presence of IFNγ 10 ng ml^−1 for an additional 16 h and 24 h respectively. Immunofluorescent staining of cells for confocal microscopy was carried out as described previously^30. CTK7A treatment was done for 24 h followed by acid extraction of histone and immunoblotting as per standard protocol^31.
Whole cell extract were prepared using RIPA buffer as mentioned above. The pre-blocked protein-G sepharose-bound antibody (4 μg) was incubated with 500 μg whole cell lysate overnight at 4° C. After extensive washes, bead-bound protein were analysed by western blotting with indicated antibodies. For HDAC inhibitors treatment, 5 mM sodium butyrate, 5 mM nicotiamide and 100 ng ml^−1 TSA were added 10 h before cells were harvest^36.

Solubility test in water = assay type: physicochemical
Experimental: To a solution of curcumin in methanol (10 mg, 0.027 Mmol) […]. After incubation for 24 h, the solvent was evaporated in vacuum. The residue […] was purified with repeated recrystallization and filtration method using TLC (CHCl3/MeOH=4:1; Rf=0.5). This gave CTK7 as a dark orange powder (7.18 mg, 55%) which was analyzed by H^1 NMR, Melting point test, Solubility test and ESI-MS.
To a solution of CTK7 in methanol (50 mg, 0.1031 mmol), (10 ml) of Sodium ethoxide was added ([…], 0.1175 mmol) and the reaction mixture was stirred at room temperature for 90 minutes. The solvent was evaporated in vacuum and the residue was washed with hexane, diethyl ether and ethyl acetate. Product was confirmed through H^1 NMR, Solubility test, melting point.

[2] = tested on: NPM1 and GAPDH expression in KB cells; test: NPM1 and GAPDH expression in treated KB cells; assay type: cell-based; conditions: 24 h
Experimental: as §1, with “protocol^31. For whole cell extract preparation RIPA buffer (Tris-HCl 50 mM, pH 7.4 NP-40 1%, Na-deoxycholate 0.25%, NaCl 150 mM, EDTA 1 mM, Phenylmethylsulfonyl fluoride (PMSF), 1 mM Na3VO4, 1 mM NaF and protease inhibitor cocktail) was used.” for “protocol^31.”

[3] = tested on: Histone H3K14 acetylation in KB cells; test: H3K14 acetylation in GSNO treated KB cells (western blotting); assay type: cell-based; conditions: concentration dependent
Experimental: as §1, with “protocol^31. For whole cell extract preparation RIPA buffer (Tris-HCl 50 mM, pH 7.4 NP-40 1%, Na-deoxycholate 0.25%, NaCl 150 mM, EDTA 1 mM, Phenylmethylsulfonyl fluoride (PMSF), 1 mM Na3VO4, 1 mM NaF and protease inhibitor cocktail) was used.” for “protocol^31.”

human melanocytes = conditions: earlier report, cited from earlier work
PCAF = biological target: T1, PCAF (Homo sapiens, UniProt Q92831); test: HAT assay with recombinant PCAF; assay type: biochemical
T1 construct: Recombinant baculovirus expressing full-length FLAG-tagged CARM1,CBP and PCAF; FLAG; made in house; host or cells: baculovirus-infected Sf21 cells
Experimental: (§2) Recombinant baculovirus expressing full-length FLAG-tagged CARM1,CBP and PCAF were purified by immunoaffinity chromatography using M2-agarose beads followed by elution with FLAG peptide. Baculovirus-expressed full-length hexahistidine-tagged p300, and G9a were purified using Ni-NTA affinity chromatography as described previously^30.
(§3) HAT gel fluorography/autoradiography assays were performed as previously reported^30. Kinetic analysis of p300 HAT inhibition was performed as reported earlier^31 in the presence of (0, 30 and 50 μM) CTK7A. The obtained values were plotted as a lineweaver burk plot using Graphpad Prism software. For p300 Autoacetylation assay, reactions of p300 full length (80 ng) were carried out in HAT assay buffer at 30° C. for 10 minutes with or without the protein (NPM1) followed by addition of 1 μl of 4.7 Ci/mmol [^3H] acetyl CoA (NEN-PerkinElmer) and were further incubated for another 10 min in a 30 μl reaction. GAPDH was used as positive control. The radio-labeled acetylated p300 were processed by fluorography followed by autoradiography.

p300 = p300 (Homo sapiens, UniProt Q09472); test: HAT assay with recombinant p300; assay type: biochemical; design: hexahistidine; made in house; host or cells: baculovirus-infected Sf21 cells
Experimental: as §2, §3

full length p300 = biological target: T2, full length p300 (Homo sapiens, UniProt Q09472); test: p300 autoacetylation assay in vitro (3H-acetyl CoA, fluorography/autoradiography); assay type: biochemical; conditions: dose dependent; 3H-acetyl-CoA
T2 construct: hexahistidine; made in house; host or cells: baculovirus-infected Sf21 cells
Experimental: as §3

[4] = tested on: GAPDH localisation in KB cells; test: GAPDH nuclear translocation in KB cells (immunofluorescence); assay type: cell-based; conditions: 10 ng ml−1, 16 h
Experimental: as §1, with “protocol^31. For whole cell extract preparation RIPA buffer (Tris-HCl 50 mM, pH 7.4 NP-40 1%, Na-deoxycholate 0.25%, NaCl 150 mM, EDTA 1 mM, Phenylmethylsulfonyl fluoride (PMSF), 1 mM Na3VO4, 1 mM NaF and protease inhibitor cocktail) was used.” for “protocol^31.”

T2 sequence (Q09472 whole entry, species assumed): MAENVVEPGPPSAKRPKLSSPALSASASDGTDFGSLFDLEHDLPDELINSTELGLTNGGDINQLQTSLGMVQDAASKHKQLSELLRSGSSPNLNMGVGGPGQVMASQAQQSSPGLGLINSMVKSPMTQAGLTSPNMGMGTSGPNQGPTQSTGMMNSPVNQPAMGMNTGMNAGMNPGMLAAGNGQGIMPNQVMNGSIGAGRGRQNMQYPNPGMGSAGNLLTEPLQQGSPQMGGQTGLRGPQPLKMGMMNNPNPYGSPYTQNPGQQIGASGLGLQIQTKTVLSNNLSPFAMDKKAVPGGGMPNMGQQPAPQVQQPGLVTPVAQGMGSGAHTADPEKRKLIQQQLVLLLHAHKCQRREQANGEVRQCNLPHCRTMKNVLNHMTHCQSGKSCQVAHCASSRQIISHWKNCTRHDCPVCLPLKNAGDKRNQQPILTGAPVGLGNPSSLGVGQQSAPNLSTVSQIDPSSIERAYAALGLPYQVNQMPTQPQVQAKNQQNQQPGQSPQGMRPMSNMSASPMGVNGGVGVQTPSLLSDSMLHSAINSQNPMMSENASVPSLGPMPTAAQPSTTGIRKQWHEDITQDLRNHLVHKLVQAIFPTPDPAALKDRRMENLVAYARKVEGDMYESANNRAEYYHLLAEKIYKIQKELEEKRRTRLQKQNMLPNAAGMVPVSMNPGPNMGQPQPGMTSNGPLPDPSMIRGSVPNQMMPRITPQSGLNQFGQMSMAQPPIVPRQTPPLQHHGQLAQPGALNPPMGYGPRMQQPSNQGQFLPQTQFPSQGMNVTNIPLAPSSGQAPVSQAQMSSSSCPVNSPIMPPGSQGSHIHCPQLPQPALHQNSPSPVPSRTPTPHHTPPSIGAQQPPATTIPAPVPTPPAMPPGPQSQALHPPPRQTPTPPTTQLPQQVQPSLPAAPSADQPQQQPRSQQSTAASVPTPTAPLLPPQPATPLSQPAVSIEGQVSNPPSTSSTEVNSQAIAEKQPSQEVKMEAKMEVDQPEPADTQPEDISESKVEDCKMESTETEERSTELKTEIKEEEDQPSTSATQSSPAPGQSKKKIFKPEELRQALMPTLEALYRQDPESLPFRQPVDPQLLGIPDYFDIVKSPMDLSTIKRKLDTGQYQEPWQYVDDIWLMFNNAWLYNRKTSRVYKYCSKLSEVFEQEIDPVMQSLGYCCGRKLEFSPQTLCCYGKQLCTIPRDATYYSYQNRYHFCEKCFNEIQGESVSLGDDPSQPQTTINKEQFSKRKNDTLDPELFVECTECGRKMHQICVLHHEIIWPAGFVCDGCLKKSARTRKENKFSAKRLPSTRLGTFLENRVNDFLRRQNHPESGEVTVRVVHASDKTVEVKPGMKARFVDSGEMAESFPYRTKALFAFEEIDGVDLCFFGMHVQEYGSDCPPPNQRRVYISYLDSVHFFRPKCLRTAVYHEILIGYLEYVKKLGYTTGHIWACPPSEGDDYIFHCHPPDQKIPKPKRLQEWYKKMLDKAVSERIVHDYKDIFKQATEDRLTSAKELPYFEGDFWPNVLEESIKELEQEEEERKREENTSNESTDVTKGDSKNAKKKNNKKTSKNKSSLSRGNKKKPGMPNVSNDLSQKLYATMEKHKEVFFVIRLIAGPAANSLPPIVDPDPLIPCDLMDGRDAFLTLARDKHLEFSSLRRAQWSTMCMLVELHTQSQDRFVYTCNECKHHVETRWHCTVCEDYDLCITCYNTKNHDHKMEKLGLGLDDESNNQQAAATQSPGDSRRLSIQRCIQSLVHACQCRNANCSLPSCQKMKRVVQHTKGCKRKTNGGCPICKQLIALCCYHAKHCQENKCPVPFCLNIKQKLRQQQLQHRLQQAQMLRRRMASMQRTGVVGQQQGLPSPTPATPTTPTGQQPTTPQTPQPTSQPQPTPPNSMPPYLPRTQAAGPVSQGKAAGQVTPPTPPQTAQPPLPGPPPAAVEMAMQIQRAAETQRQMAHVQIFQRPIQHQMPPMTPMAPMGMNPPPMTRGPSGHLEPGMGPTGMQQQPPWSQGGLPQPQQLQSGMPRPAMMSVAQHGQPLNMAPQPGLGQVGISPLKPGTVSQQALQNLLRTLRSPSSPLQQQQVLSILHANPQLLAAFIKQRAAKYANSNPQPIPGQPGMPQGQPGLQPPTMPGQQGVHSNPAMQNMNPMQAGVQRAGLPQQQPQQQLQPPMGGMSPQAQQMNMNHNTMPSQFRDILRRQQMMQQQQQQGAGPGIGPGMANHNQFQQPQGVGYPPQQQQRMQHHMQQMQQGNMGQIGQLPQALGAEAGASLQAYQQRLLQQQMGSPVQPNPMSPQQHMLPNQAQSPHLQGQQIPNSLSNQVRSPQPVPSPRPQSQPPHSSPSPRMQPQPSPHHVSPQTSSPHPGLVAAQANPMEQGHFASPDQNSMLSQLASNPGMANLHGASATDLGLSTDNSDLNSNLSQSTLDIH
p300, sequence (Q09472 whole entry, species assumed): as above
T1 sequence (Q92831 whole entry, species assumed): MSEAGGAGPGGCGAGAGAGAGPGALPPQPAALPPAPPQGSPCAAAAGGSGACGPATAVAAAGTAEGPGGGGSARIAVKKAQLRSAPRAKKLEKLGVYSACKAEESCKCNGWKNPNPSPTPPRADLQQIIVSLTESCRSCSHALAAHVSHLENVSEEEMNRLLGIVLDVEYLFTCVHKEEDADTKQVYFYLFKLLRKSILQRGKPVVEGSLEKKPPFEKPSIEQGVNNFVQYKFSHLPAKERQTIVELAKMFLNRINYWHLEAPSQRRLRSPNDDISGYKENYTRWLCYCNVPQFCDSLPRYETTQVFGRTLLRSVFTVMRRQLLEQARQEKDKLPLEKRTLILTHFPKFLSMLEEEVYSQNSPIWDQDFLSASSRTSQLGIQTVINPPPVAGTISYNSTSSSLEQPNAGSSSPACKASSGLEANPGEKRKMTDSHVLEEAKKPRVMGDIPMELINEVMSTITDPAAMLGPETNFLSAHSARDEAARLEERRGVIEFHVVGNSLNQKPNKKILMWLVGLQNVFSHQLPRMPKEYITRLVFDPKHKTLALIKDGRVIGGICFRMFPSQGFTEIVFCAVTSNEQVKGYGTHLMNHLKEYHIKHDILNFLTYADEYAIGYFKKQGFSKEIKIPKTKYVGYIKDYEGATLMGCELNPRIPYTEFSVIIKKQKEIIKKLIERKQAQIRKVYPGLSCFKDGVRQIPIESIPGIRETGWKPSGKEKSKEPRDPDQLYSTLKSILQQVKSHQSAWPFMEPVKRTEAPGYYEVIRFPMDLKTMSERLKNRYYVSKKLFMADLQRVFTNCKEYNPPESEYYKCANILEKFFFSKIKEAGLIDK

Molecule: CC(=N)NCc1cccc(CN)c1 [1400 W, N-(3-(Aminomethyl)benzyl)acetamidine]
effect on IFNγ-enhanced GAPDH and NPM1 acetylation ([1]; 100 μM): abolished or reduced

solubility in water (Solubility test in water): Insoluble
Molecule: COc1cc(C=Cc2cc(C=Cc3ccc(O)c(OC)c3)n(-c3ccc(C(=O)O)cc3)n2)ccc1O [CTK7, Hydrazinobenzoylcurcumin]

Molecule: N[C@@H](CCC(=O)N[C@@H](CSN=O)C(=O)NCC(=O)O)C(=O)O [GSNO, S-nitroso-glutathione]
expression of GAPDH [2]: enhanced in a concentration dependent manner
expression of NPM1 [2]: enhanced in a concentration dependent manner
acetylation of GAPDH ([1]; 200 μM GSNO, 24 h): gets acetylated
acetylation of NPM1 ([1]; 200 μM GSNO, 24 h): dramatically enhanced
level of H3K14 acetylation [3]: enhanced

Molecule: CC(C)(COP(=O)(O)OP(=O)(O)OC[C@H]1O[C@@H](n2cnc3c(N)ncnc32)[C@H](O)[C@@H]1OP(=O)(O)O)[C@@H](O)C(=O)NCCC(=O)NCCSC(=O)[C@@H](N)CCCCN [Lysyl-CoA, lysyl-CoA]
proliferation of human melanocytes (human melanocytes): inhibited
senescence of human melanocytes (human melanocytes; with expression SA-β-gal): induced senescence-like growth arrest

inhibition of PCAF HAT activity (PCAF): inhibitory effect
inhibition of p300 HAT activity (p300): inhibitory effect
Molecule: COc1cc(/C=C/C(=O)CC(=O)/C=C/c2ccc(O)c(OC)c2)ccc1O [curcumin, reference compound]

activation of autoacetylation of p300 (full length p300): activate
Molecule: NPM1: Nucleophosmin, histone chaperone, multifunctional nucleolar protein

B1: IFNγ: interferon γ, a proinflamatory cytokine that activates iNOS to produce NO (protein, UniProt P01579 24-161, looked up)
Interferon gamma: QDPYVKEAENLKKYFNAGHSDVADNGTLFLGILKNWKEESDRKIMQSQIVSFYFKLFKNFKDDQSIQKSVETIKEDMNVKFFNSNKKKRDDFEKLTNYSVTDLNVQRKAIHELIQVMAELSPAAKTGKRKRSQMLFRG
GAPDH and NPM1 acetylation ([1]; IFNγ 10 ng ml−1, 16 h, NO-dependent): enhanced
translocation of GAPDH to nucleus [4]: induce the translocation

From patent US20120165384A1, “INHIBITION OF HISTONE ACETYLTRANSFERASES BY CTK7A AND METHODS THEREOF” (JAWAHARLAL NEHRU CENTRE FOR ADVANCED SCIENTIFIC RESEARCH, priority 2009, published 2012)
